From patent US20190298666A1, “PROMOTION OF T LYMPHOCYTE PROLIFERATION” (Regents of the University of Minnesota, priority 2018, published 2019)

Legend:
CYP3A4 [1] = target: T1, CYP3A4 (Homo sapiens, UniProt P08684); settings: cited from earlier work
[2] = system: Naive, non-Treg CD4 T cells; assay: iTreg differentiation; type: cell-based; settings: IL2 and TGFb, 3 days
Description: Naive, non-Treg CD4 T cells were first isolated (these are isolated by magnetic depletion on CD8, CD11b, CD11c, CD19, CD24, CD25, CD44, CD49b, CD105, MHC-II, Gr1, Ter119, B220, TCRg/d). These cells were stimulated with plate bound anti-CD3/CD28 (plates were coated with 5 ug/mL for 2 hours at 37° C.) and given 100 U/mL IL2, 5 ng/mL TGFb and an additional 1 ug/mL anti-Cd28 in cRPMI. After 3 days the cells were stained for CD4, CD8 and CD25 with FOXP3 being on the GFP reporter. Tregs are defined here as CD25+FOXP3+. For this assay, 300,000 cells were plated per well in a 24 well plate.

[3] = system: CD4+ and CD8+ T lymphocytes; assay: T cell growth/proliferation, mouse splenocytes with anti-CD3 and anti-CD28 antibodies, flow cytometry; type: cell-based, C57BL/6J mouse
Description: (§1) FIGS. 1A-B. Freshly harvested C57BL/6 splenocytes were seeded at 80,000 cells/well in a 96-well plate coated with anti-mouse CD3 (10 ug/ml) and anti-mouse CD28 (1 ug/ml) antibodies. After 24 hour incubation with HBB (0-50 uM), cells were then labeled with anti-mouse CD4-eFlour450, anti-mouse CD8 FITC and anti-mouse Thy1.2 APC-eFluor780 antibodies and analyzed by a flowcytometer. Thy1.2 positive single lymphocytes were gated as T cells and CD4 positive and CD8 positive cells were counted. FIG. 1A. Results are expressed as mean±S.D. (n=6). FIG. 1B. MCF-7 breast cancer cells were incubated in the same concentration range of HBB, also for 24 hours. MTT assay of cell numbers.
(§2) FIG. 4. Freshly harvested C57BL/6 splenocytes were seeded at 80,000 cells/well in a 96-well plate coated with anti-mouse CD3 (10 ug/ml) and anti-mouse CD28 (1 ug/ml) antibodies. After 24 hour incubation with metformin (0-10 mM), cells were then labeled with anti-mouse CD4-eFlour450, anti-mouse CD8 FITC and anti-mouse Thy1.2 APC-eFluor780 antibodies and analyzed by a flowcytometer. Thy1.2 positive single lymphocytes were gated as T cells and CD4 positive and CD8 positive cells were counted.
(§3) HBB effects on T cell growth were tested across a range of concentrations (0 to 50 uM). C57BL/6J mouse splenocytes were incubated with or without biguanides in the presence of anti-mouse CD3 and anti-mouse CD28 antibodies. After 24 hours, cells were labeled with fluorescently tagged antibodies to mouse Thy-1, CD4, CD8, CD25, CD44, CD62L and CD73 surface antigens and T cell subsets were analyzed by flow cytometry.

[4] = system: MCF-7 breast cancer cells; assay: MTT assay of cell numbers, MCF-7; type: cell-based; settings: 0-50 uM, 24 hours, concentrations that induce CD4 and CD8 T cell growth
Description: as §1

CD8+ T lymphocytes = assay: T cell proliferation, mouse splenocytes with anti-CD3 and anti-CD28 antibodies, flow cytometry; type: cell-based, C57BL/6J mouse
Description: as §1, §2, §3

CD4+ T lymphocytes = assay: as above; type: cell-based, C57BL/6J mouse
Description: as §1, §2, §3

CYP3A4 [5] = target: T1, CYP3A4; settings: compared with metformin; cited from earlier work
[6] = system: breast cancer cell lines and established mouse mammary tumors; settings: cited from earlier work
[7] = system: CD4+CD25−FOXP3+ progenitor cells; assay: TRP conversion assay (IL2-dependent conversion into Tregs); type: cell-based; settings: 1 U/mL IL2, 3 days
Description: (§4) Each TRP (CD4+CD25+FOXP3- or CD4+CD25−FOXP3+) population was isolated by FACS and stimulated with 1 U/mL IL2 (in complete RPMI) for 3 days then analyzed for upregulation of CD25 and FOXP3 (by GFP reporter).

[8] = system: CD4+CD25+FOXP3- progenitor cells; assay: as above; type: cell-based; settings: 1 U/mL IL2, 3 days
Description: as §4

[9] = rodents; cited from earlier work

T1 sequence (P08684 whole entry): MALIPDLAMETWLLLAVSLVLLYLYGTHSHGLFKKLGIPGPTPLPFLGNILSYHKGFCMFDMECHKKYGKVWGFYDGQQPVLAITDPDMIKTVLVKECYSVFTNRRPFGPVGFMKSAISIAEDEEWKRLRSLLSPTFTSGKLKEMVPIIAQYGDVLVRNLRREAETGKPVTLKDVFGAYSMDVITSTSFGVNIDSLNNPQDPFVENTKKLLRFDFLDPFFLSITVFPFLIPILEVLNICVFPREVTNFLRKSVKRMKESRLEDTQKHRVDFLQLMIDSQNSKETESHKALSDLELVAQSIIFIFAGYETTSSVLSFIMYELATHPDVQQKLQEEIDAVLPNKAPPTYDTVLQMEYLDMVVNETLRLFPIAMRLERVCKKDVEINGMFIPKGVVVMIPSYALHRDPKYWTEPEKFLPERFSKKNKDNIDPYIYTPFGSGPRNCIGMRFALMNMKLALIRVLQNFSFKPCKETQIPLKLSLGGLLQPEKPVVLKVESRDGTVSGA

CCCCCCNC(=N)NC(=N)NCc1ccccc1 [HBB, N1-hexyl-N5-benzyl biguanide]
inhibition of CYP3A4 AA epoxygenase activity (CYP3A4 [1]): potently and specifically inhibits
FOXP3 and CD25 expression of the Treg cells generated [2]: expressed less FOXP3 and CD25
differentiation of naive T cells into Tregs [2]: inhibits
greater potency for T cell effects relative to metformin [3]: 1000 fold
T cell growth at low concentrations ([3]; 0.09 to 1.5 uM, 24 hours): did not inhibit
growth of MCF-7 breast cancer cells [4]: inhibit growth
proliferation of CD8+ T lymphocytes (CD8+ T lymphocytes; 6 to 12 uM, P<0.05): 1.6 fold
increase of CD8+ T cells (CD8+ T lymphocytes; 6 to 12 microM): 60%
effectiveness for expansion of CD8+ T cells ex vivo relative to metformin (CD8+ T lymphocytes; at 1000-fold lower concentration than metformin): 5 fold
proliferation of CD4+ T lymphocytes (CD4+ T lymphocytes; 6 to 12 uM, P<0.05): 1.9 fold
increase of CD4+ T cells (CD4+ T lymphocytes; 6 to 12 microM): 90%
effectiveness for expansion of CD4+ T cells ex vivo relative to metformin (CD4+ T lymphocytes; at 1000-fold lower concentration): 3 fold
affinity for the CYP3A4 heme (CYP3A4 [5]): higher affinity than metformin
concentration range of activity against breast cancer cells [6]: ~20 µM
IC50 ([6]; read-out: IC50, OCR and growth inhibition): 3 to 30 µM
IL2-dependent conversion into Tregs [7]: blocks
IL2-dependent conversion into Tregs [8]: blocks

CN(C)C(=N)N=C(N)N [metformin, reference compound]
proliferation-inducing activity for T cells ([3]; concentrations below 5 mM): failed to show proliferation-inducing activity
concentrations causing an increase of CD4+ and CD8+ T lymphocytes ([3]; metformin, 24 hours, FIG. 4): > 5 mM
increase of CD8+ T cells (CD8+ T lymphocytes; 10 mM): 14%
increase of CD4+ T cells (CD4+ T lymphocytes; 10 mM): 30%
maximum tissue concentrations [9]: about 500 microM
concentration range of activity against breast cancer cells [6]: ~5000 µM
